# Data taken from PubChem BioAssay (NCI).
#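 Exposure lasted 48 hours, with cells grown in 96-well plates and compounds tested at five concentrations. Here, GI50 denotes the concentration required for 50% inhibition of growth. At the TGI there is no net growth.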
# Test system: HCT-15 colon
# Assay: NCI-60 cell line screen, 48 h
SMILES,TGI [µM],GI50 [µM]
COc1cccc(N2C(=O)[C@H]3CC(C)c4c([nH]c5ccccc45)[C@H]3C2=O)c1 (stereo partly specified),> 100,–
N#CCC(=O)NC1C2CC3CC(C2)CC1C3 (stereo unspecified),35.9,–
CCO/N=C(/N)c1ncn(Cc2ccccc2)c1NCC(OCC)OCC,> 100,–
N.N.O=C([O-])P(=O)([O-])[O-].[Na+].[Pt+4],> 100,> 100

# Test system: HL-60(TB) leukemia
# Assay: NCI-60 cell line screen, 48 h
SMILES,TGI [µM],GI50 [µM]
OC/C=C(\I)CCCOCOCc1ccccc1,35.8,–
CCc1ccc(Nc2ccc([N+](=O)[O-])cc2[N+](=O)[O-])cc1,> 100,–
COC(=O)c1cc(C)c(C)c2c1NC(=O)CNC2=O,> 100,–
COc1cccc(N2C(=O)[C@H]3CC(C)c4c([nH]c5ccccc45)[C@H]3C2=O)c1 (stereo partly specified),> 100,–
N#CCC(=O)NC1C2CC3CC(C2)CC1C3 (stereo unspecified),61.6,–
N.N.O=C([O-])P(=O)([O-])[O-].[Na+].[Pt+4],> 100,> 100

# Test system: HOP-18 NSCLC
# Assay: NCI-60 cell line screen, 48 h
SMILES,GI50 [µM],TGI [µM]
N.N.O=C([O-])P(=O)([O-])[O-].[Na+].[Pt+4],> 100,> 100

# Test system: HOP-62 NSCLC
# Assay: NCI-60 cell line screen, 48 h
SMILES,TGI [µM],GI50 [µM]
OC/C=C(\I)CCCOCOCc1ccccc1,> 100,–
CCc1ccc(Nc2ccc([N+](=O)[O-])cc2[N+](=O)[O-])cc1,> 100,–
COC(=O)c1cc(C)c(C)c2c1NC(=O)CNC2=O,> 100,–
COc1cccc(N2C(=O)[C@H]3CC(C)c4c([nH]c5ccccc45)[C@H]3C2=O)c1 (stereo partly specified),42.5,–
N#CCC(=O)NC1C2CC3CC(C2)CC1C3 (stereo unspecified),41.7,–
CCO/N=C(/N)c1ncn(Cc2ccccc2)c1NCC(OCC)OCC,> 100,–
N.N.O=C([O-])P(=O)([O-])[O-].[Na+].[Pt+4],> 100,> 100

# Test system: HOP-92 NSCLC
# Assay: NCI-60 cell line screen, 48 h
row,SMILES,TGI [µM]
1,OC/C=C(\I)CCCOCOCc1ccccc1,53.4
2,COc1cccc(N2C(=O)[C@H]3CC(C)c4c([nH]c5ccccc45)[C@H]3C2=O)c1 (stereo partly specified),80.5
3,N#CCC(=O)NC1C2CC3CC(C2)CC1C3 (stereo unspecified),36.1

# Test system: HT29 colon
# Assay: NCI-60 cell line screen, 48 h
row,SMILES,TGI [µM]
1,OC/C=C(\I)CCCOCOCc1ccccc1,> 100
2,CCc1ccc(Nc2ccc([N+](=O)[O-])cc2[N+](=O)[O-])cc1,> 100
3,COC(=O)c1cc(C)c(C)c2c1NC(=O)CNC2=O,> 100
4,COc1cccc(N2C(=O)[C@H]3CC(C)c4c([nH]c5ccccc45)[C@H]3C2=O)c1 (stereo partly specified),> 100
5,N#CCC(=O)NC1C2CC3CC(C2)CC1C3 (stereo unspecified),33.1
6,CCO/N=C(/N)c1ncn(Cc2ccccc2)c1NCC(OCC)OCC,> 100

# Test system: IGROV1 ovarian
# Assay: NCI-60 cell line screen, 48 h
SMILES,TGI [µM],GI50 [µM]
OC/C=C(\I)CCCOCOCc1ccccc1,> 100,–
CCc1ccc(Nc2ccc([N+](=O)[O-])cc2[N+](=O)[O-])cc1,> 100,–
COC(=O)c1cc(C)c(C)c2c1NC(=O)CNC2=O,> 100,–
COc1cccc(N2C(=O)[C@H]3CC(C)c4c([nH]c5ccccc45)[C@H]3C2=O)c1 (stereo partly specified),> 100,–
N#CCC(=O)NC1C2CC3CC(C2)CC1C3 (stereo unspecified),59.1,–
CCO/N=C(/N)c1ncn(Cc2ccccc2)c1NCC(OCC)OCC,> 100,–
N.N.O=C([O-])P(=O)([O-])[O-].[Na+].[Pt+4],> 100,> 100

# Test system: K-562 leukemia
# Assay: NCI-60 cell line screen, 48 h
SMILES,TGI [µM],GI50 [µM]
OC/C=C(\I)CCCOCOCc1ccccc1,> 100,–
CCc1ccc(Nc2ccc([N+](=O)[O-])cc2[N+](=O)[O-])cc1,> 100,–
COC(=O)c1cc(C)c(C)c2c1NC(=O)CNC2=O,> 100,–
COc1cccc(N2C(=O)[C@H]3CC(C)c4c([nH]c5ccccc45)[C@H]3C2=O)c1 (stereo partly specified),> 100,–
N#CCC(=O)NC1C2CC3CC(C2)CC1C3 (stereo unspecified),> 100,–
CCO/N=C(/N)c1ncn(Cc2ccccc2)c1NCC(OCC)OCC,> 100,–
N.N.O=C([O-])P(=O)([O-])[O-].[Na+].[Pt+4],> 100,> 100

# Test system: KM12 colon
# Assay: NCI-60 cell line screen, 48 h
SMILES,TGI [µM],GI50 [µM]
OC/C=C(\I)CCCOCOCc1ccccc1,> 100,–
CCc1ccc(Nc2ccc([N+](=O)[O-])cc2[N+](=O)[O-])cc1,> 100,–
COC(=O)c1cc(C)c(C)c2c1NC(=O)CNC2=O,> 100,–
COc1cccc(N2C(=O)[C@H]3CC(C)c4c([nH]c5ccccc45)[C@H]3C2=O)c1 (stereo partly specified),> 100,–
N#CCC(=O)NC1C2CC3CC(C2)CC1C3 (stereo unspecified),32.5,–
CCO/N=C(/N)c1ncn(Cc2ccccc2)c1NCC(OCC)OCC,> 100,–
N.N.O=C([O-])P(=O)([O-])[O-].[Na+].[Pt+4],> 100,> 100

# Test system: KM20L2 colon
# Assay: NCI-60 cell line screen, 48 h
SMILES,TGI [µM],GI50 [µM]
OC/C=C(\I)CCCOCOCc1ccccc1,> 100,–
CCc1ccc(Nc2ccc([N+](=O)[O-])cc2[N+](=O)[O-])cc1,> 100,–
COC(=O)c1cc(C)c(C)c2c1NC(=O)CNC2=O,> 100,–
COc1cccc(N2C(=O)[C@H]3CC(C)c4c([nH]c5ccccc45)[C@H]3C2=O)c1 (stereo partly specified),> 100,–
N#CCC(=O)NC1C2CC3CC(C2)CC1C3 (stereo unspecified),33.6,–
CCO/N=C(/N)c1ncn(Cc2ccccc2)c1NCC(OCC)OCC,> 100,–
N.N.O=C([O-])P(=O)([O-])[O-].[Na+].[Pt+4],> 100,> 100

# Test system: LOX IMVI melanoma
# Assay: NCI-60 cell line screen, 48 h
row,SMILES,TGI [µM]
1,OC/C=C(\I)CCCOCOCc1ccccc1,45.9
2,COc1cccc(N2C(=O)[C@H]3CC(C)c4c([nH]c5ccccc45)[C@H]3C2=O)c1 (stereo partly specified),> 100
3,N#CCC(=O)NC1C2CC3CC(C2)CC1C3 (stereo unspecified),23.8
4,CCO/N=C(/N)c1ncn(Cc2ccccc2)c1NCC(OCC)OCC,> 100

# Test system: LXFL 529 NSCLC
# Assay: NCI-60 cell line screen, 48 h
SMILES,TGI [µM],GI50 [µM]
OC/C=C(\I)CCCOCOCc1ccccc1,> 100,–
CCc1ccc(Nc2ccc([N+](=O)[O-])cc2[N+](=O)[O-])cc1,> 100,–
COC(=O)c1cc(C)c(C)c2c1NC(=O)CNC2=O,> 100,–
COc1cccc(N2C(=O)[C@H]3CC(C)c4c([nH]c5ccccc45)[C@H]3C2=O)c1 (stereo partly specified),> 100,–
N#CCC(=O)NC1C2CC3CC(C2)CC1C3 (stereo unspecified),> 100,–
CCO/N=C(/N)c1ncn(Cc2ccccc2)c1NCC(OCC)OCC,> 100,–
N.N.O=C([O-])P(=O)([O-])[O-].[Na+].[Pt+4],> 100,> 100

# Test system: M14 melanoma
# Assay: NCI-60 cell line screen, 48 h
SMILES,TGI [µM],GI50 [µM]
OC/C=C(\I)CCCOCOCc1ccccc1,> 100,–
CCc1ccc(Nc2ccc([N+](=O)[O-])cc2[N+](=O)[O-])cc1,> 100,–
COC(=O)c1cc(C)c(C)c2c1NC(=O)CNC2=O,> 100,–
COc1cccc(N2C(=O)[C@H]3CC(C)c4c([nH]c5ccccc45)[C@H]3C2=O)c1 (stereo partly specified),> 100,–
N#CCC(=O)NC1C2CC3CC(C2)CC1C3 (stereo unspecified),41.6,–
CCO/N=C(/N)c1ncn(Cc2ccccc2)c1NCC(OCC)OCC,> 100,–
N.N.O=C([O-])P(=O)([O-])[O-].[Na+].[Pt+4],> 100,> 100

# Test system: M19-MEL melanoma
# Assay: NCI-60 cell line screen, 48 h
row,SMILES,TGI [µM]
1,OC/C=C(\I)CCCOCOCc1ccccc1,> 100
2,CCc1ccc(Nc2ccc([N+](=O)[O-])cc2[N+](=O)[O-])cc1,> 100
3,COC(=O)c1cc(C)c(C)c2c1NC(=O)CNC2=O,> 100
4,COc1cccc(N2C(=O)[C@H]3CC(C)c4c([nH]c5ccccc45)[C@H]3C2=O)c1 (stereo partly specified),> 100
5,N#CCC(=O)NC1C2CC3CC(C2)CC1C3 (stereo unspecified),> 100
6,CCO/N=C(/N)c1ncn(Cc2ccccc2)c1NCC(OCC)OCC,> 100

# Test system: MALME-3M melanoma
# Assay: NCI-60 cell line screen, 48 h
SMILES,TGI [µM],GI50 [µM]
CCc1ccc(Nc2ccc([N+](=O)[O-])cc2[N+](=O)[O-])cc1,> 100,–
COc1cccc(N2C(=O)[C@H]3CC(C)c4c([nH]c5ccccc45)[C@H]3C2=O)c1 (stereo partly specified),> 100,–
N#CCC(=O)NC1C2CC3CC(C2)CC1C3 (stereo unspecified),42.6,–
CCO/N=C(/N)c1ncn(Cc2ccccc2)c1NCC(OCC)OCC,> 100,–
N.N.O=C([O-])P(=O)([O-])[O-].[Na+].[Pt+4],> 100,> 100

# Test system: MOLT-4 leukemia
# Assay: NCI-60 cell line screen, 48 h
row,SMILES,TGI [µM]
1,OC/C=C(\I)CCCOCOCc1ccccc1,13.1
2,CCc1ccc(Nc2ccc([N+](=O)[O-])cc2[N+](=O)[O-])cc1,> 100
3,COC(=O)c1cc(C)c(C)c2c1NC(=O)CNC2=O,> 100
4,COc1cccc(N2C(=O)[C@H]3CC(C)c4c([nH]c5ccccc45)[C@H]3C2=O)c1 (stereo partly specified),> 100
5,N#CCC(=O)NC1C2CC3CC(C2)CC1C3 (stereo unspecified),> 100
6,CCO/N=C(/N)c1ncn(Cc2ccccc2)c1NCC(OCC)OCC,> 100
